This note sets out measurements from patent publication US20120142701A1 (priority 2010, published 2012).

Experiment [1] relates to A/WSN/33 virus. In words: multicycle growth assay, viral titres by plaques assay in MDCK cells. The experiment is classed as cell-based, influenza A H1N1 (A/WSN/33). The note with it: MDCK cells infected with A/WSN/33 at 0.001 MOI. The procedure: FIG. 3 is a plot of the antiviral activity of an aggregation-inducing agent nucleozin in multicycle growth assays. Madin-Darby Canine Kidney (MDCK) cells were infected with A/WSN/33 virus at 0.001 MOI in the presence or absence of nucleozin (0.1 or 1 μM). Viral titres were determined by plaques assay at the time indicated.

The target in experiment [2] is T1, nucleoproteins (Influenza A virus, UniProt P03466). In words: cell-based aggregation assay (immunofluorescence microscopy). An excerpt: A cell-based method for identifying compounds that promote aggregation includes:
a.) treating cells with one or more test compounds for a period of time;
b.) adding a fixing solution to stop protein translation;
c.) treating the cells with a fluorescent antibody that binds specifically to a protein, glycoprotein, or protein-nucleic acid complex;
d.) determining the presence or absence of aggregation,
wherein if aggregation is present in (d), the test compound is identified as a compound that may promote aggregation.
1. 25 μl of culture medium is added into each well of a 384-well plate followed by the addition of a test compound from a chemical library in each well. Then 25 μl of cells (6×10^3 cells/well) with undesirable physiological conditions in DMEM with 10% fetal bovine serum are seeded into each assay well. Plates are incubated at 37° C. in a 5% CO2 humid atmosphere for 1 day.
2. The supernatant is removed from each well, and washed with 50 μl of phosphate-buffered saline (PBS).
3. The PBS is aspirated off and 50 μl of a cold (4° C.) fixing solution of 3.65% formaldehyde in PBS was added to each well. The plate was incubated for 1 h at 4° C.
4. The fixing solution was aspirated off and 50 μl of 0.1% Nonidet P-40 solution in PBS was added to each well. […]
8. The aggregation of proteins, glycoproteins, or protein-nucleic acid complexes is detected by immunofluorescence microscopy.

For experiment [3], the target named is T1, nucleoproteins. In words: cell-free aggregation assay (aggregation plate reader). The experiment is classed as biochemical. The procedure: A cell-free method for identifying compounds that promote aggregation of proteins, glycoproteins, or protein-nucleic acid complexes includes:
a.) combining a mixture of bovine serum albumin and one or more proteins, glycoproteins, or protein-nucleic acid complexes;
b.) adding the mixture of (a) to a multi-well plate;
c.) transferring a test compound to one or more wells of the multi-well plate;
d.) incubating the plate of (c); and
e.) determining the presence of aggregation,
wherein if aggregation is present in (e), the test compound is identified as a compound that may promote aggregation.
1. A mixture of 1 μM proteins, glycoproteins, or protein-nucleic acid complexes in 40 μg/ml bovine serum albumin is prepared.
2. A portion (20 μl) of the reaction mixture is added to each well of a 384-well mircotitre plate using automated liquid dispenser.
3. Chemicals from a chemical library are assayed by transferring approximately 100 nl to each assay well by a 384 solid pin array.
4. The plates are incubated at 37° C. for 6 hours and the extent of chemical induced aggregation is recorded by an aggregation plate reader.

Experiment [4] relates to A/Vietnam/1194/04 H5N1 virus. The experiment is classed as in vivo, BALB/c female mice.
For experiment [5], the system named is nucleoprotein. The format is biochemical.
In experiment [6] the target is nucleoprotein (Influenza A virus, UniProt P15682). The experiment can be described thus: cellular immunofluorescence microscopy in infected A549 cells. The experiment is classed as cell-based, influenza A/WSN/33 virus.
Sequence of nucleoprotein (Influenza A virus, UniProt P15682) (P15682 whole entry): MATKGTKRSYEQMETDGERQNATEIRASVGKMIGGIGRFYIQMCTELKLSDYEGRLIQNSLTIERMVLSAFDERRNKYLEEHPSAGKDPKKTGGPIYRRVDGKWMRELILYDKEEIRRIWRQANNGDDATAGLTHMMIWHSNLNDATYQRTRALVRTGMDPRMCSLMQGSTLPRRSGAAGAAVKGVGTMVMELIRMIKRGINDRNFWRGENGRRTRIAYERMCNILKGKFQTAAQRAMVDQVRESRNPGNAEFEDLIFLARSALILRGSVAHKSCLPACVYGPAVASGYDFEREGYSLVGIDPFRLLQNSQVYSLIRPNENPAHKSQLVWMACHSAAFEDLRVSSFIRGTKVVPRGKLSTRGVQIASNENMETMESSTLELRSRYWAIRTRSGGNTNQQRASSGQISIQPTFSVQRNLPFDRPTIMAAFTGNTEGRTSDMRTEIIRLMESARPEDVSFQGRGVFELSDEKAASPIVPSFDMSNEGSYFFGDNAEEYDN

T1 sequence (P03466 whole entry): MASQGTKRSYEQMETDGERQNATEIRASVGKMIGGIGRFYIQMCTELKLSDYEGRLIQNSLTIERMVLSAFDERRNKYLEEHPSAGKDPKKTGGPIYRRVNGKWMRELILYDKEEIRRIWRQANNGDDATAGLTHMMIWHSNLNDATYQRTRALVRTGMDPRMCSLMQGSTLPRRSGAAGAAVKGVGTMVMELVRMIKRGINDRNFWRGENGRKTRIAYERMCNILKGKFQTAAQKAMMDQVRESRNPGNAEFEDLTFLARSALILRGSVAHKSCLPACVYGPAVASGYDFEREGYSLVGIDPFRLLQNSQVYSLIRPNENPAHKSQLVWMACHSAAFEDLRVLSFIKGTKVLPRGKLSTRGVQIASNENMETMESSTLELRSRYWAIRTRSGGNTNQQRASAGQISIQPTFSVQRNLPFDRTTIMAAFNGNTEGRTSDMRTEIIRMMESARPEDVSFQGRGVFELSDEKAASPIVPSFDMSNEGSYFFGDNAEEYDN

On to nucleozin, for which the “viral growth (viral titres)” value in experiment [1] (nucleozin 0.1 μM) is given as “suppressed viral growth”. Further, the “virus production (viral titres)” value in experiment [1] (nucleozin at 1 (unit cut off in the text)) is reported as “completely inhibited virus production”. Also, in experiment [2], the aggregation of nucleoproteins result is “aggregation of nucleoproteins was observed”. Further, the aggregation of nucleoproteins result in experiment [3] was “aggregation of nucleoproteins was observed”. In addition, in experiment [4] (mice after inoculation by influenza A virus H5N1 strain A/Vietnam/1194/04), the “survival rate versus untreated controls” value was “significantly higher survival rate”. Moreover, the “animals surviving for more than 21 days” value in experiment [4] (mice, two doses of nucleozin (250 nmole per dose) per day i.p. for 5 days, H5N1 A/Vietnam/1194/04 i.n.) came out at 90%. In addition, in experiment [5], the “amount of nucleoprotein running into the native gradient gel” value is reported as “reduces the amount of nucleoprotein running into the native gradient gel in a dose-dependent manner” and the “nucleoprotein-RNA complex that runs into the 4-12% polyacrylamide gradient gel” value is recorded as “dose-dependent reduction”. Besides, the “nucleoprotein localisation at 3 hours post infection” value in experiment [6] (influenza A/WSN/33, 3 hours post infection) was ““halo” of dense nucleoprotein aggregates surrounding the perinuclear region in the cytoplasm”. Further, in experiment [6] (influenza A/WSN/33, 24 hours after infection), the “nucleoprotein localisation at 24 hours after infection” value is “nucleoprotein trapped in the cytoplasm was seen scattered randomly in host cells”. Further, in experiment [6] (influenza A/WSN/33 virus infection), the “nucleoprotein accumulation in the nucleus” value is “potent antagonist of nucleoprotein accumulation in the nucleus”.
